Consider 1 compound from patent US9492471B2, “Methods of treating a disease or disorder associated with Bruton'S Tyrosine Kinase” (Celgene Avilomics Research, Inc., priority 2013, dated 2016).

Holding throughout (test): HotSpot kinase profiling
What all share (assay type): biochemical

Assay [1] addresses T1, TRKC (Homo sapiens, UniProt Q16288).
T1 construct: purchased Reaction Biology Corp
In short, it runs like this:
(§1)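 Percent inhibition, averaged when run more than once and referenced to a DMSO negative control, came from a radioactive filter-binding readout on P81 paper. Reactions of kinase with freshly made substrate and cofactors ran for 2 h at room temperature.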

Assay [2] has as its target T2, ERBB4/HER4 (Homo sapiens, UniProt Q15303).
T2 construct: purchased Reaction Biology Corp
In short, it runs like this:
as §1

Assay [3] deals with T3, LYN B (Homo sapiens, UniProt P07948).
T3 construct: purchased Reaction Biology Corp
In short, it runs like this:
as §1

Assay [4] addresses T4, DLK/MAP3K12 (Homo sapiens, UniProt Q12852).
T4 construct: purchased Reaction Biology Corp
T4 sequence (Q12852 1-859): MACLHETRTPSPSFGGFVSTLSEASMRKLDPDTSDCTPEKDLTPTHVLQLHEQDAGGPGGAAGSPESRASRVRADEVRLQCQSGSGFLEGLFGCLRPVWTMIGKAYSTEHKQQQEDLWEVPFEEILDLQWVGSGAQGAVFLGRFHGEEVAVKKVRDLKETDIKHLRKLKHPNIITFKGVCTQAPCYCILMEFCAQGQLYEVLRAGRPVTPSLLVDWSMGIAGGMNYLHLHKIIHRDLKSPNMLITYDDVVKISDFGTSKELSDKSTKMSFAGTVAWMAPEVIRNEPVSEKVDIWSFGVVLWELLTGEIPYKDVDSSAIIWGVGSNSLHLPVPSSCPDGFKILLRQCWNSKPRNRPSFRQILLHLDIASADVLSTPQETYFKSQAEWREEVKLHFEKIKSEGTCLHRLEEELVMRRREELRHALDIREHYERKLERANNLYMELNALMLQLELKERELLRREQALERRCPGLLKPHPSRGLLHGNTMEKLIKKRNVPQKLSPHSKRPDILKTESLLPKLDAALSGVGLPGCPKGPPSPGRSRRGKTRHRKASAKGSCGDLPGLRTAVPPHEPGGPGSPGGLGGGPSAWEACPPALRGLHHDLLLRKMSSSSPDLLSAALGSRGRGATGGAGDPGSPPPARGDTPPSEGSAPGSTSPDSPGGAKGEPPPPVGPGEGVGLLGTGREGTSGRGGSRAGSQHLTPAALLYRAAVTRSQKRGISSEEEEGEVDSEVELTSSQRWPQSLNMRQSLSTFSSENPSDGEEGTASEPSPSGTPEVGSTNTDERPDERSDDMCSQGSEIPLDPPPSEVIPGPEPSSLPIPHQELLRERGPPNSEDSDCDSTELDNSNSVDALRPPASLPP
A digest of the protocol: as §1

In assay [5] the target is T5, JAK3 (Homo sapiens, UniProt P52333).
T5 construct: purchased Reaction Biology Corp
T5 sequence (P52333 1-1124): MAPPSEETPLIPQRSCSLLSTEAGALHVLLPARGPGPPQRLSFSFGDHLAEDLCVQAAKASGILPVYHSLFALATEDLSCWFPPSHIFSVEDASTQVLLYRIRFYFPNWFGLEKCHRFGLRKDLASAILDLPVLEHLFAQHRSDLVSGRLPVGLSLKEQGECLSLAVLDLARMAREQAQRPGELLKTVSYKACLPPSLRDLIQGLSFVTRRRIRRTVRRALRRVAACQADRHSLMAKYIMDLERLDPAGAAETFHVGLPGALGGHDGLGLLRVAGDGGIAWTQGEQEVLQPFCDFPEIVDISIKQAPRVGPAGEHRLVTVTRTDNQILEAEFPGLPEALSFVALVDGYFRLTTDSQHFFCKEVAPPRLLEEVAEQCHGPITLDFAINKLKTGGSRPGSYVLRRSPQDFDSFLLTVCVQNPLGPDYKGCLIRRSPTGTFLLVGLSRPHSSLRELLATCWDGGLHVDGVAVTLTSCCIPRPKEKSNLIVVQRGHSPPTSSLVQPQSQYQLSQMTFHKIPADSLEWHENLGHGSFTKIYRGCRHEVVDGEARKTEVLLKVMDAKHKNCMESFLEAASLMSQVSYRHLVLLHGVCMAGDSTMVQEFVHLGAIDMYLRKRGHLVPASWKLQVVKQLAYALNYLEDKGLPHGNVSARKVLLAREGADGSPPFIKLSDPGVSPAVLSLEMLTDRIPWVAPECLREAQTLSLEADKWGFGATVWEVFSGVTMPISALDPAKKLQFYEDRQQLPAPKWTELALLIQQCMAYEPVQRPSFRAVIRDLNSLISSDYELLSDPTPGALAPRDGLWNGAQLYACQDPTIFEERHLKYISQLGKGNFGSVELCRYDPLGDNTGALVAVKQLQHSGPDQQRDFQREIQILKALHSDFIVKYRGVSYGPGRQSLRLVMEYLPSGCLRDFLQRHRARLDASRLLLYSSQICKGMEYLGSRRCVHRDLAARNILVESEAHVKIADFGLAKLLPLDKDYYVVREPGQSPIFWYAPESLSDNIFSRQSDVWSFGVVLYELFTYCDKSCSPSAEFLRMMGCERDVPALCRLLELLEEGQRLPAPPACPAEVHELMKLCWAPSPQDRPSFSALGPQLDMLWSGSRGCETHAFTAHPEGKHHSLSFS
A digest of the protocol:
as §1

The mark [6] stands for this setting: read-out: % Enzyme Activity (relative to DMSO controls) Run 1.
Where [7] appears, read: read-out: % Enzyme Activity (relative to DMSO controls) Run 2.

Read-outs that look alike come from different tables or passages of the source.

T3 sequence (P07948 1-491 isoform P07948-2): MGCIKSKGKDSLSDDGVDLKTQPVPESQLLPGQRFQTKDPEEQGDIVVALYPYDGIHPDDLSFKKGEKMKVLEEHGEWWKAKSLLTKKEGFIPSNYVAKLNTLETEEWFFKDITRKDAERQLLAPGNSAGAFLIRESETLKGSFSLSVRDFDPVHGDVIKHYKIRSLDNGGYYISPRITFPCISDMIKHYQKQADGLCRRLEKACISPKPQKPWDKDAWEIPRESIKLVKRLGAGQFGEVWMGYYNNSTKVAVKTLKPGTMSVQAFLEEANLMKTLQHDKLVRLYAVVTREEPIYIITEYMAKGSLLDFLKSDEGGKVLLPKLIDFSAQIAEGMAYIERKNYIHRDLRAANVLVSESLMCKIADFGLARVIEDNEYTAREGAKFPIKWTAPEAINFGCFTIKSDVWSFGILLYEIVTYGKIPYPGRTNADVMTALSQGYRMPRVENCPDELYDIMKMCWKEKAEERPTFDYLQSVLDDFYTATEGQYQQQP
T1 sequence (Q16288 32-839): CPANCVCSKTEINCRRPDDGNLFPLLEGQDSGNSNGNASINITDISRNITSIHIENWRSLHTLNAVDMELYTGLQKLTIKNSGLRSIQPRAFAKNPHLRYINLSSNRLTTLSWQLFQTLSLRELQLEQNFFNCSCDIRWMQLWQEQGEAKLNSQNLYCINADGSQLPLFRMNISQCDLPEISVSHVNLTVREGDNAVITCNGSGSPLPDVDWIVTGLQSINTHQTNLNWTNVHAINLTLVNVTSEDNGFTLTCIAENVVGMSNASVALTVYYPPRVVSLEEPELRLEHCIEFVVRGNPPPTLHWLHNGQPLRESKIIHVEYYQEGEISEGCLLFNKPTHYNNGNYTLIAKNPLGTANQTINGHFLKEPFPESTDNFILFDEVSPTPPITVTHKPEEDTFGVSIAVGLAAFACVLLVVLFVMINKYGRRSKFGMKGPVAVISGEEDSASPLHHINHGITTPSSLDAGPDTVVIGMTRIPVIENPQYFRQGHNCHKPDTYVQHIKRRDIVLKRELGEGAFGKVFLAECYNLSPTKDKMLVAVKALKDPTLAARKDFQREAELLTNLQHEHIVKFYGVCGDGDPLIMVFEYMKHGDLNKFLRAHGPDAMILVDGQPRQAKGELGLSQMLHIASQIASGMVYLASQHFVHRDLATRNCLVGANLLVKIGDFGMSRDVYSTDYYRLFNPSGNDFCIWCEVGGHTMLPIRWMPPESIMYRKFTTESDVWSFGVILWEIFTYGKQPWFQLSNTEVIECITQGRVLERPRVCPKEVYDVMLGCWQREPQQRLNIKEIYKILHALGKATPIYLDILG
T2 sequence (Q15303 26-1308): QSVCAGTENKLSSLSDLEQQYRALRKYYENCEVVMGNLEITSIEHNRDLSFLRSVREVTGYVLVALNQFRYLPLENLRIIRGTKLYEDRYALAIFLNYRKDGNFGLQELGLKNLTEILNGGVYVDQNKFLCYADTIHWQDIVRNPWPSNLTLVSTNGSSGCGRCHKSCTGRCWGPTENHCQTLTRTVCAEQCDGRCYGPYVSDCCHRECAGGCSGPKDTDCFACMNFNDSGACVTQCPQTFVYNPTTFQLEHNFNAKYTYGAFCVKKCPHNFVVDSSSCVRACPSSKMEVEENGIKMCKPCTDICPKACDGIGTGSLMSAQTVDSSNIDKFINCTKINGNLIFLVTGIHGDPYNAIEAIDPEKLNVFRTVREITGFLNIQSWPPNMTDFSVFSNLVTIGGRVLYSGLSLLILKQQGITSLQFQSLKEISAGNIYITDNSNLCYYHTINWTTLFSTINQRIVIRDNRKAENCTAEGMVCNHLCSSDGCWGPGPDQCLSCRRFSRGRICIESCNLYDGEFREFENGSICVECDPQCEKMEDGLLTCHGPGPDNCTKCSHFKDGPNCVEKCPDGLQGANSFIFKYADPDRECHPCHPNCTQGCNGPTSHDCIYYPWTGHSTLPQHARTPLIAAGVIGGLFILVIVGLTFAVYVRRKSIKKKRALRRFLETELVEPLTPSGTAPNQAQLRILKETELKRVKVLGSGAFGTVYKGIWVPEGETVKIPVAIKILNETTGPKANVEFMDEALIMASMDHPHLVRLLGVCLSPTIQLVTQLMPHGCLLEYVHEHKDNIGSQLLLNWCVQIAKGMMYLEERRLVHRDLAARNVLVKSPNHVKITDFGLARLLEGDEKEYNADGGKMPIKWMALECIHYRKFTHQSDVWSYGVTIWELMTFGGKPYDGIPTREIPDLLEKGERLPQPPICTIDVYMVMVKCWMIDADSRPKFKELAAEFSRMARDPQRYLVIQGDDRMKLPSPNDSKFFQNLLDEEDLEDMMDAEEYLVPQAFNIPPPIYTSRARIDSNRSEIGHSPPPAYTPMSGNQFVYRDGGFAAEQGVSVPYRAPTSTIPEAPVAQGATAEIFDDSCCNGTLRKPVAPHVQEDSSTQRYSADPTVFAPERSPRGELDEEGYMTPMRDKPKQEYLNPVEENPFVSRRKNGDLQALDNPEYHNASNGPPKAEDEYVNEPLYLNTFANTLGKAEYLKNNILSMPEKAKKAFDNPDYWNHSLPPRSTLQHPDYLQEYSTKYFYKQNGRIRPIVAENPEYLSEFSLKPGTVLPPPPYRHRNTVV

As for `C=CC(=O)Nc1cccc(Nc2nc(Nc3ccc(OCCOC)c(F)c3)ncc2F)c1` [Compound 2], the inhibition at 3 µM in assay [1] was determined as 66.3%; in assay [2] it was 91.3%; in assay [3] it was 5.7%; in assay [4], 22.8%; in assay [5] it was 97.4%. Moreover, the remaining activity at 3 µM in assay [1] (setting [6]) was found to be 35.1%; in assay [1] (setting [7]), 32.3%; in assay [2] (setting [6]) it was 9.15%; in assay [2] (setting [7]) it was 8.32%; in assay [3] (setting [6]), 92.9%; in assay [3] (setting [7]), 95.7%. Further, the remaining activity at 3 µM in assay [4] (setting [6]) was determined as 74.2%; in assay [4] (setting [7]), 80.2%; in assay [5] (setting [6]) it was 2.53%; in assay [5] (setting [7]) it was 2.73%.

Broadly, the inhibition is the share of the control response that was lost under treatment. Low values mean a response near the control, high ones a response far below the control.
